The results in this text go back to patent US8076489B2, “5-hydroxy-benzothiazole derivatives having beta-2-adrenoreceptor agonist activity” (Novartis AG, priority 2004, dated 2011).

In assay [1] the test system is guinea pig tracheal strip. The assay can be described thus: guinea-pig tracheal strip in vitro assay (duration of action). The assay is classed as cell-based. The source says:
(§1) Compounds of formulae IX are known or may be prepared using procedures that are known or are analogous to those hereinafter described in the Examples. Compounds of formula I in free, salt or solvate form are useful as pharmaceuticals. Accordingly the invention also provides a compound of formula I in free, salt or solvate form for use as a pharmaceutical. The compounds of formula I in free, salt or solvate form, hereinafter referred to alternatively as “agents of the invention”, have good β2-adreno-receptor agonist activity. The β2 agonist activity, onset of action and duration of action of the agents of the invention may be tested using the guinea pig tracheal strip in vitro assay according to the procedure of R. A. Coleman and A. T. Nials, J. Pharmacol. Methods 1989, 21, 71. The binding potency and selectivity for the β2-adrenoreceptor relative to the β1-adrenoreceptor can be measured by a classical filtration binding assay according to the procedure of Current Protocols in Pharmacology (S. J. Enna (editor-in-chief) et al, John Wiley & Son, Inc, 1998), or by cAMP determination in cells expressing β2- or β1-adreno-ceptor, according to the procedure of B. January et al, Brit. J. Pharmacol. 1998, 123, 701.

A further assay addresses β2-adrenoreceptor (Homo sapiens, UniProt P07550). The assay can be described thus: classical filtration binding assay, β2 binding potency.
Excerpt: as §1
Many of the compounds have binding selectivities for the β2-adrenoreceptor relative to the β1-adrenoreceptor from 1.5 to 500.

[2] abbreviates: classical filtration binding assay, read-out: β2 binding potency, Ki.

Where two headings read alike, the source gives them in different places. A value given as a limit tells only on which side of the number the result lay.

Sequence of β2-adrenoreceptor (P07550 whole entry, species assumed): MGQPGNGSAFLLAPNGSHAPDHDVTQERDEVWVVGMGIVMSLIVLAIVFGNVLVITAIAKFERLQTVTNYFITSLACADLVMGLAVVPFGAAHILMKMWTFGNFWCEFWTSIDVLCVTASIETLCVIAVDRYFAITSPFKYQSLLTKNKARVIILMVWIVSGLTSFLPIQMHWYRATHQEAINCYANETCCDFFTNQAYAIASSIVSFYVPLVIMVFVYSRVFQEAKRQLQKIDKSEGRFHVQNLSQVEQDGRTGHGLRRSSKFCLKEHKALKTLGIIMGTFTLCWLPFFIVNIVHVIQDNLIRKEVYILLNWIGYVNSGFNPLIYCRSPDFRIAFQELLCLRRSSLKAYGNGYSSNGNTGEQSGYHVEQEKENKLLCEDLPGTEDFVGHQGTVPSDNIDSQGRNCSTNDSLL

For the compound `CC(C)(Cc1ccccc1)NC[C@H](O)c1cc(O)cc2[nH]c(=O)sc12` [Example 1, (R)-7-[2-(1,1-Dimethyl-2-phenyl-ethylamino)-1-hydroxy-ethyl]-5-hydroxy-3H-benzothiazol-2-one], the “T(50%) time for inhibition of contraction to decay to 50% of its maximum value” in assay [1] (100 nM concentration) is greater than 672 min. `CCCCOc1ccc(CC(C)(C)NCC(O)c2cc(O)cc3[nH]c(=O)sc23)cc1` (stereo not shown) [Example 4] gave a Ki on β2-adrenoreceptor of 0.027 µM. Consider `CC(NCC(O)c1cc(O)cc2[nH]c(=O)sc12)C1CCCCC1` (stereo not shown) [Example 2], for which, on β2-adrenoreceptor (setting [2]), the Ki is 0.061 µM. For the compound `O=c1[nH]c2cc(O)cc(C(O)CNC3CCCC3OCc3ccccc3)c2s1` (stereo not shown) [Example 17], the Ki on β2-adrenoreceptor (setting [2]) was 0.002 µM.

Regarding `O=c1[nH]c2cc(O)cc(C(O)CNC3CCCC3C3CCCC3)c2s1` (stereo not shown) [Example 14], the inhibition constant (Ki) at β2-adrenoreceptor (setting [2]) turned out to be 0.056 µM. `CN(C)c1ccc(CC(C)(C)NC[C@@H](O)c2cc(O)cc3[nH]c(=O)sc23)cc1` [Example 18, (S)-7-{2-[2-(4-Dimethylamino-phenyl)-1,1-dimethyl-ethylamino]-1-hydroxy-ethyl}-5-hydroxy-3H-benzothiazol-2-one]: the “T(50%) time for inhibition of contraction to decay to 50% of its maximum value” in assay [1] (10 nM concentration) came to 595 min. As to `CC(CCc1ccccc1)NCC(O)c1cc(O)cc2[nH]c(=O)sc12` (stereo not shown) [Example 9], the Ki on β2-adrenoreceptor (setting [2]) came out at 0.016 µM.
